Calls of active or inactive are those of the source.
How the values were obtained:
[1] = tested on: BJ; assay: cytotoxicity toward BJ-TERT-LT-ST fibroblasts, dose response, cell-based, RAS-independent, luminescence (AID 1935); type: functional; settings: Homo sapiens;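 note: BJ fibroblasts immortalized with TERT plus LT and ST oncogenes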
[2] = tested on: BJ; assay: cells; type: functional, cell-based; settings: Homo sapiens
[3] = NIH-3T3 fibroblast cytotoxicity, dose response, cytotoxicity control, cell-based, fluorescence, Alamar Blue, secondary assay (AID 2327); type: functional;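 note: NIH-3T3 mouse fibroblasts cultured with fluconazole at 8 µg/mL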
[4] = target: Protein kinase C delta type (Homo sapiens, UniProt Q05655); type: functional
Chain of Protein kinase C delta type (Q05655 whole entry): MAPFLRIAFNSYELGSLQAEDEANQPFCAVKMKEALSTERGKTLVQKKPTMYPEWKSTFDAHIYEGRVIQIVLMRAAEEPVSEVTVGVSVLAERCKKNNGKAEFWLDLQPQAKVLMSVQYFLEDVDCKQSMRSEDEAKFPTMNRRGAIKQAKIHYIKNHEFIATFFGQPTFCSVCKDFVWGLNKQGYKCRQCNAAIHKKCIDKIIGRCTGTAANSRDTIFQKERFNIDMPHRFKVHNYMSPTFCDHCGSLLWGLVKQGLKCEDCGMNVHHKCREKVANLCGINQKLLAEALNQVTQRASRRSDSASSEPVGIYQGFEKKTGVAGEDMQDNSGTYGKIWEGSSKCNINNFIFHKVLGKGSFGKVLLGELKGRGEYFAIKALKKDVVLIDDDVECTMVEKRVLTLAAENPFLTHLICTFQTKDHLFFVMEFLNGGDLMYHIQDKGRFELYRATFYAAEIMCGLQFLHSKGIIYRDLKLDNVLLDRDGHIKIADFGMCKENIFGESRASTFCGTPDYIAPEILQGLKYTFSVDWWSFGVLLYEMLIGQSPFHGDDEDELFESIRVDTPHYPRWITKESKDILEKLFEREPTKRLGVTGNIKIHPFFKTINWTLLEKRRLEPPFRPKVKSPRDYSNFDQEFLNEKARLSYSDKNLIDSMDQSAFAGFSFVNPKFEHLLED

[5] = target: Serine/threonine-protein kinase Chk2 (Homo sapiens, UniProt O96017); type: functional;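 note: CHEK2 entry within a kinome-wide screening panel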
Chain of Serine/threonine-protein kinase Chk2 (O96017 whole entry): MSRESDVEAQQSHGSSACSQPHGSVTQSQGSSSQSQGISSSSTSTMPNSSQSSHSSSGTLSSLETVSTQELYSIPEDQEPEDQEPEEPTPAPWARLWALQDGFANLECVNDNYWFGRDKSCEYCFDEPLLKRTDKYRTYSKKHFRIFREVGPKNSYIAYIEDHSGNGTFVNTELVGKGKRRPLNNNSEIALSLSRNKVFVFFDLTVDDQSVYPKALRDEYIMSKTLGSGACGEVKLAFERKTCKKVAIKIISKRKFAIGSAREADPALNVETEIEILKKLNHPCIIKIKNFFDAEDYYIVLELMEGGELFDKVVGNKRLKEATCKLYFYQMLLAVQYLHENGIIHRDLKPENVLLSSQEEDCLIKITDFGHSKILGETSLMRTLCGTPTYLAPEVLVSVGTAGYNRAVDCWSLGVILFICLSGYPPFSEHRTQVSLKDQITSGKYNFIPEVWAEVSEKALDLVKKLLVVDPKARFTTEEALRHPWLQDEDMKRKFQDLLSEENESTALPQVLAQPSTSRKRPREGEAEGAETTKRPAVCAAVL

[6] = target: Tyrosine-protein kinase ABL1 (Homo sapiens, UniProt P00519); type: functional
[7] = target: Ribosomal protein S6 kinase beta-1 (Homo sapiens, UniProt P23443); type: functional;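 note: measured as one member of a kinome-wide profiling panel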
Chain of Ribosomal protein S6 kinase beta-1 (P23443 whole entry): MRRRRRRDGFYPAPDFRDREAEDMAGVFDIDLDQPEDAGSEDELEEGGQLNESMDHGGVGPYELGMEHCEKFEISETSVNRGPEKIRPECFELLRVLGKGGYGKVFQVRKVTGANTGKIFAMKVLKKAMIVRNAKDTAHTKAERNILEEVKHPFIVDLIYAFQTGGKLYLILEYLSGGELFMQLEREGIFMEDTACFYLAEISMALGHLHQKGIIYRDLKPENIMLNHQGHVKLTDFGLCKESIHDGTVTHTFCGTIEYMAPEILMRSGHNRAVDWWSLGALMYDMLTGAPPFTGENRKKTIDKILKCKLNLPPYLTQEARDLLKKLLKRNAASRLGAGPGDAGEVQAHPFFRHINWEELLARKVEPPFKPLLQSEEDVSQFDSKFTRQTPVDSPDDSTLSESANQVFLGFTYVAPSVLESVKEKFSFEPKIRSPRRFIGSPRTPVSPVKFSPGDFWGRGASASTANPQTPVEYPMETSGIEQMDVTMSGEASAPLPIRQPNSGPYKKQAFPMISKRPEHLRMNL

[8] = target: High affinity nerve growth factor receptor (Homo sapiens, UniProt P04629); type: functional;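 note: NTRK1 tested as one member of a kinome-wide profiling panel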
Chain of High affinity nerve growth factor receptor (P04629 whole entry): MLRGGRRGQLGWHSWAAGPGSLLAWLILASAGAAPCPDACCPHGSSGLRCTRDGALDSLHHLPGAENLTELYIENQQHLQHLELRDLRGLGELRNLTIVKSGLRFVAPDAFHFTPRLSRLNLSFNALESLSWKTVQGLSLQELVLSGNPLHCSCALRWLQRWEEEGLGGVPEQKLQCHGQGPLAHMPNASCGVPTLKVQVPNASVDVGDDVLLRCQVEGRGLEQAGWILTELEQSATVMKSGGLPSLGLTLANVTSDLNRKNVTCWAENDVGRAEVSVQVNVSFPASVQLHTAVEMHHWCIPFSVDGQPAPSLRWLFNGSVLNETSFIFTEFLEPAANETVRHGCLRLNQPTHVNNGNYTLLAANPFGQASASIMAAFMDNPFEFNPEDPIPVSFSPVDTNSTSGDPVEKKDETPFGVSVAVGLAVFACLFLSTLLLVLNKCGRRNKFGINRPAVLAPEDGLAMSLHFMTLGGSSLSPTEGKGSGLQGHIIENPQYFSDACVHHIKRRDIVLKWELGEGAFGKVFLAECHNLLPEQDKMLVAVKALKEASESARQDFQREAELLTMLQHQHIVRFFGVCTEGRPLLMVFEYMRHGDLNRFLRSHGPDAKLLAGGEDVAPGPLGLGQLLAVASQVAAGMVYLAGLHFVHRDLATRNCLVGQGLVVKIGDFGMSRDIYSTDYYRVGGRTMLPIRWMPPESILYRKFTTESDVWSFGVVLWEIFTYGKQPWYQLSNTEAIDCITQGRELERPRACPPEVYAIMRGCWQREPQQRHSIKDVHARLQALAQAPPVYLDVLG

[9] = target: Glycogen synthase kinase-3 alpha (Homo sapiens, UniProt P49840); type: functional;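 note: GSK3A result taken from a broad kinome-wide kinase panel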
[10] = target: Tyrosine-protein kinase Blk (Homo sapiens, UniProt P51451); type: functional;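 note: obtained as one member of a kinome-wide kinase assay panel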
[11] = target: Casein kinase II subunit alpha (Homo sapiens, UniProt P68400); type: functional
[12] = target: Serine/threonine-protein kinase PLK3 (Homo sapiens, UniProt Q9H4B4); type: functional
Chain of Serine/threonine-protein kinase PLK3 (Q9H4B4 whole entry): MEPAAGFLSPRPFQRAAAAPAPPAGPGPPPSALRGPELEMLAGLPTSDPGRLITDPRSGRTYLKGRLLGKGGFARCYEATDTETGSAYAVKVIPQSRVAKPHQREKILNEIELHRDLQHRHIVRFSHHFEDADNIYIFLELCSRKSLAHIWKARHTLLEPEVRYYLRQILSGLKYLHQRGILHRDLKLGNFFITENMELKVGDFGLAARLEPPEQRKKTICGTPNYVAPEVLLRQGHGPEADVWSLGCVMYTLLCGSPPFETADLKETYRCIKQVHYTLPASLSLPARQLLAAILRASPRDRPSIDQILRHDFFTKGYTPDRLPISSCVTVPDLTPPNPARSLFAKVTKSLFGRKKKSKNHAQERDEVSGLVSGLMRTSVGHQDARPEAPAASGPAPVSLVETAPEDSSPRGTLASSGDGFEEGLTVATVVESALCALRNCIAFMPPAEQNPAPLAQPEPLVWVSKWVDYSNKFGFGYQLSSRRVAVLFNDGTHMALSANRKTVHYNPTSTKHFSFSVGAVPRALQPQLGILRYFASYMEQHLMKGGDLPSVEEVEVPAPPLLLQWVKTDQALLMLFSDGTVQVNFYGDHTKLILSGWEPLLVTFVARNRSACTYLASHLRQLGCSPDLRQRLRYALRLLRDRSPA

[13] = target: Serine/threonine-protein kinase D2 (Homo sapiens, UniProt Q9BZL6); type: functional;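 note: measured against PRKD2 as one member of a kinome-wide kinase profiling panel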
Chain of Serine/threonine-protein kinase D2 (Q9BZL6 whole entry): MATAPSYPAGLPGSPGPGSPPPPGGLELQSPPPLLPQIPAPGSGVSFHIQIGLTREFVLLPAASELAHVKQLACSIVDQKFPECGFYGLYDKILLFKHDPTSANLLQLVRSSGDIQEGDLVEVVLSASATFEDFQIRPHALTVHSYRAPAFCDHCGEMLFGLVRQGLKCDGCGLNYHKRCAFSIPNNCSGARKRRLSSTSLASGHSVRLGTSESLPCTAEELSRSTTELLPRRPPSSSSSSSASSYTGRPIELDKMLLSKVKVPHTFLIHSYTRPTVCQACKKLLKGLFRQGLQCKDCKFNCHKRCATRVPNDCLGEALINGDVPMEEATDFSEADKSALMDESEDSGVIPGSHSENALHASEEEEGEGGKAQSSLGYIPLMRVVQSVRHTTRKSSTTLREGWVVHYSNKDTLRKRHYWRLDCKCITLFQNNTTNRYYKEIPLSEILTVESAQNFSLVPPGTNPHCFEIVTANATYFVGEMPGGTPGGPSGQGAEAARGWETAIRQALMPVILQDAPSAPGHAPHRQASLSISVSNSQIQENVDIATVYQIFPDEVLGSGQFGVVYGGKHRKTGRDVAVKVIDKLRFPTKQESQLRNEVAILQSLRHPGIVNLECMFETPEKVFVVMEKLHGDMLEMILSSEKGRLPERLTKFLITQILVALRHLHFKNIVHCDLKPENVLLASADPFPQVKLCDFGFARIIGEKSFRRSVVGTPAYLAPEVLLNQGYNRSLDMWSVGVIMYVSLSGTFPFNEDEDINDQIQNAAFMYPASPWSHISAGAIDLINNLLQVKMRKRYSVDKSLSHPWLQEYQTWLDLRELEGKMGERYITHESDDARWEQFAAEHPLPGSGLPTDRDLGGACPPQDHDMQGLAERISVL

[14] = target: Dual specificity tyrosine-phosphorylation-regulated kinase 1A (Homo sapiens, UniProt Q13627); type: functional;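 note: measured against DYRK1A as one member of a broad kinome profiling panel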
[15] = target: Mitogen-activated protein kinase 1 (Homo sapiens, UniProt P28482); type: functional
Chain of Mitogen-activated protein kinase 1 (P28482 whole entry): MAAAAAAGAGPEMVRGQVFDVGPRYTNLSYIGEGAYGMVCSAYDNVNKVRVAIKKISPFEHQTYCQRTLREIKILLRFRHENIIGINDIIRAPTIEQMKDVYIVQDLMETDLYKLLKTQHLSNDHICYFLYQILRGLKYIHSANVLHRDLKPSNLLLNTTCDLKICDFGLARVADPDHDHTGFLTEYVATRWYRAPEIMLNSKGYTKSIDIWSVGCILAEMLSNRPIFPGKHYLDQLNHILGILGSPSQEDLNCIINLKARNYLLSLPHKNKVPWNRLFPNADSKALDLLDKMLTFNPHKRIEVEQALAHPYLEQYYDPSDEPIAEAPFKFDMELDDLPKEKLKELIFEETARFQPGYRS

[16] = target: Tyrosine-protein kinase Lyn (Homo sapiens, UniProt P07948); type: functional;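 note: lyn as one member of a kinase panel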
[17] = target: Tyrosine-protein kinase Lck (Homo sapiens, UniProt P06239); type: functional;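 note: lck was assayed as one member of a kinase panel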
[18] = target: Serine/threonine-protein kinase Nek2 (Homo sapiens, UniProt P51955); type: functional
[19] = target: Calcium/calmodulin-dependent protein kinase type 1 (Homo sapiens, UniProt Q14012); type: functional
[20] = target: ALK tyrosine kinase receptor (Homo sapiens, UniProt Q9UM73); type: functional;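 note: ALK tested as one member of a kinase panel screen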
[21] = target: RAC-alpha serine/threonine-protein kinase (Homo sapiens, UniProt P31749); type: functional;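 note: AKT1 affinity measured as one member of a kinome-wide kinase profiling panel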
[22] = target: Tyrosine-protein kinase ITK/TSK (Homo sapiens, UniProt Q08881); type: functional;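 note: affinity for ITK measured as one member of a broad kinase panel profiling binding across the kinome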
Chain of Tyrosine-protein kinase ITK/TSK (Q08881 whole entry): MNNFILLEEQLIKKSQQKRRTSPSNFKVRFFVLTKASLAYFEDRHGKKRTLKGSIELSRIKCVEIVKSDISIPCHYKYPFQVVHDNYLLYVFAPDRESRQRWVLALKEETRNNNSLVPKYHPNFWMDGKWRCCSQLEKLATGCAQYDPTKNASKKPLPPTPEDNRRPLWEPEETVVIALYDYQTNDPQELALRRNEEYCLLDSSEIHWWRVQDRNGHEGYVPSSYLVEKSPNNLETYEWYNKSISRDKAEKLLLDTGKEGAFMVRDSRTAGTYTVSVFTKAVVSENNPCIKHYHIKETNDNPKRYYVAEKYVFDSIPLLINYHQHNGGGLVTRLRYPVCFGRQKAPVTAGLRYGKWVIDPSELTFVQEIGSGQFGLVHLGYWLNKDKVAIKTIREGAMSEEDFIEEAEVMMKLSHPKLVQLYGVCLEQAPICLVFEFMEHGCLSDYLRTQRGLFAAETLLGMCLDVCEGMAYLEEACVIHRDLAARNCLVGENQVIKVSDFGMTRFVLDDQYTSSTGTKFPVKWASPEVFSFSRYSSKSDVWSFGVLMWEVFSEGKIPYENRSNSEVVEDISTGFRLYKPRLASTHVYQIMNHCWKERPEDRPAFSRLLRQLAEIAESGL

[23] = target: Tyrosine-protein kinase JAK3 (Homo sapiens, UniProt P52333); type: functional
[24] = target: Vascular endothelial growth factor receptor 2 (Homo sapiens, UniProt P35968); type: functional
[25] = target: Protein kinase C zeta type (Homo sapiens, UniProt Q05513); type: functional;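 note: measured as one member of a broad kinase profiling panel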

COc1ccc(-c2nnc(NC(=O)c3ccc(F)cc3)o2)cc1
> 150000 nM (not active): EC50 [1]
active: EC50 [2] 30700 nM
inactive: EC50 [3] > 150000 nM

CCn1c(-c2nonc2N)nc2cnc(Oc3cccc(NC(=O)c4ccc(OCCN5CCOCC5)cc4)c3)cc21 [GSK-269962A]
active: Ki [4] 5.01 nM | Ki [7] 3.16 nM | Ki [9] 50.1 nM | Ki [13] 2000 nM | Ki [17] 2510 nM | Ki [21] 501 nM | Ki [25] 25.1 nM
inactive: Ki [5] > 1580 nM | Ki [6] > 631 nM | Ki [8] > 2510 nM | Ki [10] > 1580 nM | Ki [11] > 6310 nM | Ki [12] > 7940 nM | Ki [14] > 6310 nM | Ki [15] > 7940 nM | Ki [16] > 1580 nM | Ki [18] > 10000 nM | Ki [19] > 5010 nM | Ki [20] > 1260 nM | Ki [22] > 1580 nM | Ki [23] > 1580 nM | Ki [24] > 7940 nM

— ChEMBL document CHEMBL1201862, “PubChem BioAssay data set” (2004)
